Experimental data reported in patent publication US9458137B2, “Substituted indol-5-ol derivatives and their therapeutical applications” (NantBioScience, Inc., priority 2012, dated 2016).

How the values were obtained:
[1] = test system: AN3 human endometrial carcinoma carcinoma xenograft; test: AN3 endometrial carcinoma xenograft; type: in vivo, nude mouse; settings: various concentrations; AN3 nude mouse model
Text: (§1) This example assesses NTW-3475's anti-tumor activity using a scid mouse xenograft models for leukemias and nude mouse xenograft models of endometrial, pancreatic and thyroid carcinomas. NTW-3475 combination therapy was also studied in murine xenografts.
FIGS. 39-41 depict the results of various concentrations of NTW-3456 on the AN3 nude mouse/xenograft model of endometrial carcinoma.

[2] = plasma concentration after oral administration (LCMS); type: in vivo, SCID mice; settings: 24 hour after single oral 50 mg/kg; mice with MV4-11 tumor xenografts
Description: (§2) The mice carrying the established MV4-11 tumor xenografts (tumor volume around 150 mm^3) were given an oral dose of 50 mg/kg NTW-3456. At 0, 1, 2, 8, 16, 24 hours after dosing, three were euthanized. The blood samples were collected and plasma was prepared with centrifuge for LCMS assay. And the tumors were harvested, homogenized in lysis buffer, immunoprecipitated with anti-FLT3 antibody FIG. 33.
(§3) The curve (solid dot) is the plot of plasma concentration-time profiles of NTW-3456 after oral administration of 50 mg/kg.

[3] = test system: FLT3 phosphorylation (pFLT3) of MV4-11 tumors; test: FLT3 phosphorylation in MV4-11 tumor xenografts; type: in vivo, SCID mice; settings: 24 hour after single oral 50 mg/kg
Description: as §2, §3

[4] = test system: human MV411 human acute myelogenous leukemia (AML) xenograft; type: in vivo, SCID mice; settings: various concentrations; scid mouse, MV411 cells
Description: The objective of the first study was to evaluate antitumor activities of the novel multiple-kinase inhibitor NTW-3475 against human MV411 human acute myelogenous leukemia (AML) xenograft model in female SCID mice.
Four or six animals were randomly assigned to each study group. Each animal was injected subcutaneously in the left and right flank area with 0.1 ml of 1.0×10^8 MV411 cells per mL
(§4) Each test or control animal was placed on a 5-day on, two-day off for two cycles of vehicle negative control or 25, 50 mg/kg of NTW-3475. Tumor growth was measured with a digital hand held caliper twice weekly (once tumor emerges) prior to the first dosing and then two to three times weekly until euthanized. Animals were weighed prior to tumor cell injection, prior to dosing, two to three times weekly with tumor growth measurements, and prior to euthanasia.
FIGS. 27-32 depict the results of various concentrations of NTW-3456 on tumor growth in scid mouse/xenograft model of AML using MV411 cells. […] This invention is characterized as it is here was a correlation between the inhibition of the pFLT3 kinase and growth control.

[5] = test system: human tumor cell lines of the cancer screening panel; test: in vitro antiproliferation, NCI 60 cancer cell line panel (SRB); type: cell-based; settings: 48 h
Description: NTW-3475 was also tested for its antiproliferative potential using cell lines from the NCI 60 cancer cell line panel.
The human tumor cell lines of the cancer screening panel are grown in RPMI 1640 medium containing 5% fetal bovine serum and 2 mM L-glutamine. For a typical screening experiment, cells are inoculated into 96 well microtiter plates in 100 μL at plating densities ranging from 5,000 to 40,000 cells/well depending on the doubling time of individual cell lines. After cell inoculation, the microtiter plates are incubated at 37° C., 5% CO2, 95% air and 100% relative humidity for 24 h prior to addition of experimental drugs. […]
Following drug addition, the plates are incubated for an additional 48 h at 37° C., 5% CO2, 95% air, and 100% relative humidity. […] Bound stain is subsequently solubilized with 10 mM trizma base, and the absorbance is read on an automated plate reader at a wavelength of 515 nm. […] Using the seven absorbance measurements [time zero, (Tz), control growth, (C), and test growth in the presence of drug at the five concentration levels (Ti)], the percentage growth is calculated at each of the drug concentrations levels. Percentage growth inhibition is calculated as: [(Ti-Tz)/(C-Tz)]×100 for concentrations for which Ti>/=Tz [(Ti-Tz)/Tz]×100 for concentrations for which Ti<Tz.
Three dose response parameters are calculated for each experimental agent. […]

abl T315I mutant = abl T315I mutant (Homo sapiens, UniProt P00519, T315I); test: kinase activity in abl mutants; type: biochemical
Text: The first study was designed to assess the effect of NTW-3456 on kinase activity. Activity of NTW-3456 for a wide range of kinases and is shown FIGS. 22-24, including mutant kinases thought to play a large role in neoplastic transformation (FIGS. 23 and 24). In addition, NTW-3456 inhibited kinase activity in abl mutants for which no prior inhibitors have been FDA approved. In particular, NTW-3456 inhibits the 2 T315I mutant for which no kinase inhibitor had been known prior to NTW-3456.

[6] = test system: human MIAPaCa-2 pancreatic carcinoma xenograft; test: MIAPaCa-2 pancreatic carcinoma xenograft; type: in vivo, athymic nude-Faxn1 mice
Description: The objective of the third study was to evaluate antitumor activities of novel multiple-kinase inhibitor NTW-3475 in human MIAPaCa-2 pancreatic carcinoma xenograft in athymic nude-Faxn1 mice.
Four animals were randomly assigned to study groups. Each animal was weighed, and then injected subcutaneously in the left and right flank area with 0.1 ml of 5.0×10^7 MIAPaCa-2 cells per mL.
Each test or control animal was on a 5-day on, two-day off for two cycles treatment schedule with negative control vehicle, positive control Abraxane at 20 mg/kg or 25, 50 mg/kg of NTW-3475. Tumor growth was measured with a digital hand held caliper twice weekly (once tumor emerges) prior to the first dosing and then two to three times weekly until euthanized.
FIGS. 42-44 depict the results of various concentrations of NTW-3456 on a nude mouse/xenograft the MIAPaCa-2 model of pancreatic carcinoma.
FIGS. 45 and 46 depict the results of various concentrations of NTW-3456, with or without Abraxane on a MiaPaCa-2 model of pancreatic carcinoma.

[7] = test system: Pane-1 model of pancreatic carcinoma; test: Panc-1 pancreatic carcinoma xenograft; type: in vivo; settings: with or without Abraxane
Text: FIGS. 48 and 49 depict the results of various concentrations of NTW-3456, with or without Abraxane on a Pane-1 model of pancreatic carcinoma.

[8] = test system: human K562 chronic myelogenous leukemia (CML) xenograft; test: K562 CML xenograft model; type: in vivo, SCID mice; settings: various concentrations; scid mouse, K562 cells
Description: The objective of the second study was to evaluate antitumor activities of novel multiple-kinase inhibitor NTW-3475 in human K562 chronic myelogenous leukemia (CML) xenograft model in female SCID mice.
Four to six animals were randomly assigned to study groups. Each animal was weighed, and then injected subcutaneously in the left and right flank area with 0.1 ml of 8.0×10^7 K562 cells per mL.
as §4, with “was” for “was placed”, “treatment schedule.” for “of vehicle negative control or 25, 50 mg/kg of NTW-3475.”
FIGS. 34 and 35 depict the results of various concentrations of NTW-3456 on a scid mouse/xenograft model of CML using K562 cells.

[9] = test system: TT human Thyroid carcinoma xenograft; test: TT thyroid carcinoma xenograft; type: in vivo, nude mouse; settings: various concentrations; nude mouse, TT cell model
Text: as §1
FIGS. 36-38 depict the results of various concentrations of NTW-3456 on a nude mouse/xenograft the TT cell model of thyroid carcinoma.

Compound: C/C=C/c1cc(Nc2cc(N3CCN(C)CC3)nc(Oc3cc(F)c4[nH]c(C)cc4c3F)n2)n[nH]1 [NTW-3456]
- anti-tumor activity [1]: significant anti-tumor activity, especially at higher doses
- plasma concentration [2]: 7 nM
- inhibition of FLT3 phosphorylation of MV4-11 tumor [3]: more than 60%
- anti-tumor activity [4]: significant anti-tumor activity, especially at higher doses
- antiproliferative activity [5]: seen against AML, CML, thyroid, enodmetrial, gastric, breast, and some pancreatic carcinoma cell lines
- inhibition of kinase activity (abl T315I mutant): inhibits
- anti-tumor activity ([6]; various concentrations, single agent, nude mouse): some anti-tumor activity
- anti-tumor activity ([6]; with or without Abraxane): significant anti-tumor activity, especially when used in combination with Abraxane
- anti-tumor activity [7]: significant anti-tumor activity, especially when used in combination with Abraxane
- anti-tumor activity [8]: significant anti-tumor activity, especially at higher doses
- anti-tumor activity [9]: significant anti-tumor activity, especially at higher doses
